From patent publication US5349127A, “Expression of herbicide metabolizing cytochromes P450” (priority 1992, dated 1994)

Legend:
[1] = test system: Tomato seedlings (Lycopersicon esculentum cv. Pixie); experiment: Tomato transplants in herbicide-treated soil after bacterial pretreatments (Example 18); format: in vivo; conditions: for Shoot Fresh Weight (mean of five plants): 22 days
Experimental: One liter cultures of S. griseolus ATCC 11796, S. lividans pCAO200, S. lividans pCAO200-#9-SU1-FeS-B or S. lividans pCAO200-#12-SU1 were grown in YEME medium (sporulation broth for the S. griseolus culture) at 30° C. until the cultures were in late log phase of growth and the absorbance of each culture in a spectrophotometer at a wavelength of 600 nm was between 1.0 and 1.3. Tomato seedlings (Lycopersicon esculentum cv. "Pixie") were seeded directly into soiless media, Oasis Wedges® (Smithers-Oasis, Kent, Ohio), fertilized with 500 ppm Peter's® fertilizer (20:19:18); and 300 ppm of iron was added weekly. As the tomato plants develop, roots ramify through the Oasis Wedges®. The tomato plants were transplanted to pots when they were 4 inches tall as follows.
Five inch standard round pots (without holes) were filled with Sassafras sandy loam (ph 6.7, 0.8% OM) and a single Oasis cube and then treated preemergence with either Classic® (10001) 25 DF (16, 32, 64, 125 and 250 grams active ingredient/hectare [g ai/ha]) or Oust® (10010) 75 DF at rates of 4, 8, 16, 32 and 64 g ai/ha), both herbicides available from E. I. du Pont de Nemours and Company, Wilmington, Del. The oasis cube was then removed and replaced by a transplant tomato dipped in either the cultures described above of S. griseolus ATCC 11796 (treatment A), S. lividans pCAO200 (treatment B), S. lividans pCAO200-#9-SU1-FeS-B (treatment C), S. lividans pCAO200-#12-SU1 (treatment D) or into water (treatment E). Five transplants were tested for each treatment at each dosage rate. The pots were placed on a greenhouse bench for 22 days and watered twice daily, after which shoot fresh weights of treatments were determined. Roots of these treatments and controls were examined too. Plants, soil and pots treated with bacterial cultures were double bagged and disposed by incineration.

[2] = test system: S. lividans C37; experiment: Metabolism of 10001 in growing culture, HPLC of supernatant (Example 4); format: in vitro ADME, Streptomyces lividans; conditions: 0.12 mg/ml 10001 in culture
Experimental: Herbicides and their metabolites are measured by HPLC as described by Romesser et al., BBRC 140: 650-659 (1986), herein incorporated by reference, except that 0.1% H3 PO4 is used in both solvents. Chromatographic identity and quantitation of the herbicides and their resulting metabolites is determined by comparing them chromatographically with authentic standard compounds. Identity of the resulting metabolites is also confirmed by UV spectroscopy.
Separate cultures (50 ml) inoculated with S. lividans C37, S. lividans transformed with pCAO400 or S. lividans transformed with pCAO401 in sporulation broth containing 0.12 mg/ml of 10001 were grown with shaking at 30° C. Aliquots (1.5 ml) of each culture were removed at 24, 32, 48 and 56 hours after inoculation and the supernatant of each aliquot was analyzed by HPLC for its concentration of 10001 and its metabolites 10002 or 10003.

[3] = test system: Tomato seedlings (Lysopersicon esculentum cv. Pixie); experiment: Tomato transplants in sulfonylurea-treated soil after dipping in water, YEME or S. lividans culture (Example 13); format: in vivo; conditions: for Mean value of visual ratings: 19 DAT
Experimental: A 2 liter culture of S. lividans pCAO200SU1-FeS-B#9 was grown in YEME medium at 30° C. until the culture was in […] log phase of growth and the absorbance in a spectrophotometer at a wavelength of 600 nm was between about 1.0 and 1.3. Tomato seedlings (Lysopersicon esculentum cv. "Pixie") were seeded directly into soiless media, Oasis Wedges® (Smithers-Oasis, Kent, Ohio), fertilized with 500 ppm Peters'® fertilizer (20:19:18); and 300 ppm of iron was added weekly. As the tomato plants develop, roots ramify through the Oasis Wedges®. The tomato plants were transplanted to pots when they were 4 inches tail as follows.
Five inch standard round pots (without holes) were filled with Sassafras sandy loam (pH 6.7, 0.8% OM) and an oasis cube. The contents of the each pot was sprayed, prior to transplanting the tomato plants, with either 10001, in 25% dry flowable composition (25 DF) or 10010, 75 DF at rates of 16, 32, 64, 125 or 250 grams of active ingredient per hectare (g ai/ha). The Oasis cube was then removed and replaced by another containing a transplant tomato plant dipped in either water (treatment A), YEME medium (treatment B)-or the culture of S. lividans pCAO200SU1-FeS-B#9 described above (treatment C). Six transplant tomato plants received each of the three treatments, and five transplant tomato plants (to serve as controls) received no treatment. The resulting tomato plants were grown in a greenhouse for 19 days and watered twice daily, after which they were evaluated for visual injury (100=complete kill, other numbers=percentage of injury relative to controls [subjectively determined], 0=no injury) with respect to the water dipped, no-herbicide control treatments. The plants were left in the greenhouse for one more week after which the fresh weights of the shoots of the plants were determined. The roots of the plants which received these treatments and controls were examined too.

CCOC(=O)c1ccccc1S(=O)(=O)NC(=O)Nc1nc(Cl)cc(OC)n1 [compound 10001, N-[(4-chloro-6-methoxy-pyrimidin-2-yl)aminocarbonyl]-2-ethoxycarbonylbenzenesulfonamide] was tested, and the “Shoot Fresh Weight (mean of five plants)” value ([1]; 16 g ai/ha, Pretreatment A (Streptomyces griseolus ATCC11796)) was 0.88 grams, the “Shoot Fresh Weight (mean of five plants)” value ([1]; 16 g ai/ha, Pretreatment B (Streptomyces lividans pCAO200)) was 0.67 grams and the “Shoot Fresh Weight (mean of five plants)” value ([1]; 16 g ai/ha, Pretreatment C (S. lividans pCAO200#9SU1-FeS-B)) was 1.63 grams. The “Shoot Fresh Weight (mean of five plants)” value ([1]; 16 g ai/ha, Pretreatment D (S. lividans pCAO200#12SU1)) was 0.62 grams, the “Shoot Fresh Weight (mean of five plants)” value ([1]; 16 g ai/ha, Pretreatment E (water)) was 1.67 grams and the “Shoot fresh weight in treatment C versus the other treatments” value ([1]; 32, 64 and 125 g ai/ha of 10001 or 16 and 32 g ai/ha of 10010) was 2-3 times greater. For the same molecule, the “Shoot Fresh Weight (mean of five plants)” value ([1]; 32 g ai/ha, Pretreatment A (Streptomyces griseolus ATCC11796)) was 0.74 grams, the “Shoot Fresh Weight (mean of five plants)” value ([1]; 32 g ai/ha, Pretreatment B (Streptomyces lividans pCAO200)) was 0.47 grams and the “Shoot Fresh Weight (mean of five plants)” value ([1]; 32 g ai/ha, Pretreatment C (S. lividans pCAO200#9SU1-FeS-B)) was 1.62 grams. The “Shoot Fresh Weight (mean of five plants)” value ([1]; 32 g ai/ha, Pretreatment D (S. lividans pCAO200#12SU1)) was 0.82 grams, the “Shoot Fresh Weight (mean of five plants)” value ([1]; 32 g ai/ha, Pretreatment E (water)) was 1.07 grams and the “Shoot Fresh Weight (mean of five plants)” value ([1]; 64 g ai/ha, Pretreatment A (Streptomyces griseolus ATCC11796)) was 0.21 grams. For the same molecule, the “Shoot Fresh Weight (mean of five plants)” value ([1]; 64 g ai/ha, Pretreatment B (Streptomyces lividans pCAO200)) was 0.53 grams, the “Shoot Fresh Weight (mean of five plants)” value ([1]; 64 g ai/ha, Pretreatment C (S. lividans pCAO200#9SU1-FeS-B)) was 1.24 grams and the “Shoot Fresh Weight (mean of five plants)” value ([1]; 64 g ai/ha, Pretreatment D (S. lividans pCAO200#12SU1)) was 0.47 grams. For the same molecule, the “Shoot Fresh Weight (mean of five plants)” value ([1]; 64 g ai/ha, Pretreatment E (water)) was 0.46 grams, the “Shoot Fresh Weight (mean of five plants)” value ([1]; 125 g ai/ha, Pretreatment A (Streptomyces griseolus ATCC11796)) was 0.49 grams and the “Shoot Fresh Weight (mean of five plants)” value ([1]; 125 g ai/ha, Pretreatment B (Streptomyces lividans pCAO200)) was 0.38 grams. For the same molecule, the “Shoot Fresh Weight (mean of five plants)” value ([1]; 125 g ai/ha, Pretreatment C (S. lividans pCAO200#9SU1-FeS-B)) was 1.01 grams, the “Shoot Fresh Weight (mean of five plants)” value ([1]; 125 g ai/ha, Pretreatment D (S. lividans pCAO200#12SU1)) was 0.35 grams and the “Shoot Fresh Weight (mean of five plants)” value ([1]; 125 g ai/ha, Pretreatment E (water)) was 0.23 grams. For the same molecule, the “Shoot Fresh Weight (mean of five plants)” value ([1]; 250 g ai/ha, Pretreatment A (Streptomyces griseolus ATCC11796)) was 0.44 grams, the “Shoot Fresh Weight (mean of five plants)” value ([1]; 250 g ai/ha, Pretreatment B (Streptomyces lividans pCAO200)) was 0.25 grams and the “Shoot Fresh Weight (mean of five plants)” value ([1]; 250 g ai/ha, Pretreatment C (S. lividans pCAO200#9SU1-FeS-B)) was 0.55 grams. The “Shoot Fresh Weight (mean of five plants)” value ([1]; 250 g ai/ha, Pretreatment D (S. lividans pCAO200#12SU1)) was 0.26 grams, the “Shoot Fresh Weight (mean of five plants)” value ([1]; 250 g ai/ha, Pretreatment E (water)) was 0.21 grams and the concentration in supernatant ([2]; 0 h) was 325 µM. The concentration in supernatant ([2]; 24 h) was 320 µM, the concentration in supernatant ([2]; 32 h) was 295 µM and the concentration in supernatant ([2]; 48 h) was 281 µM. The concentration in supernatant ([2]; 56 h) was 280 µM, the “Mean Shoot Fresh Weights” value ([3]; 16 g ai/ha, Treatment A (water)) was 3.25 grams and the “Mean value of visual ratings” value ([3]; 16 g ai/ha, Treatment A (water), scale 0-100) was 43.3. The “Mean Shoot Fresh Weights” value ([3]; 16 g ai/ha, Treatment B (YEME)) was 2.35 grams, the “Mean value of visual ratings” value ([3]; 16 g ai/ha, Treatment B (YEME), scale 0-100) was 51.7 and the “Mean Shoot Fresh Weights” value ([3]; 16 g ai/ha, Treatment C (pCAO200SU1-FeS-B#9)) was 3.1 grams. The “Mean value of visual ratings” value ([3]; 16 g ai/ha, Treatment C (pCAO200SU1-FeS-B#9), scale 0-100) was 40, the “Mean Shoot Fresh Weights” value ([3]; 32 g ai/ha, Treatment A (water)) was 2.49 grams and the “Mean value of visual ratings” value ([3]; 32 g ai/ha, Treatment A (water), scale 0-100) was 68.3. The “Mean Shoot Fresh Weights” value ([3]; 32 g ai/ha, Treatment B (YEME)) was 1.76 grams, the “Mean value of visual ratings” value ([3]; 32 g ai/ha, Treatment B (YEME), scale 0-100) was 58.3 and the “Mean Shoot Fresh Weights” value ([3]; 32 g ai/ha, Treatment C (pCAO200SU1-FeS-B#9)) was 3.37 grams. The “Mean value of visual ratings” value ([3]; 32 g ai/ha, Treatment C (pCAO200SU1-FeS-B#9), scale 0-100) was 50, the “visual injury, treatment C versus treatments A or B” value ([3]; 64, 125, and 250 g ai/ha) was “significantly less injured” and the “Mean Shoot Fresh Weights” value ([3]; 64 g ai/ha, Treatment A (water)) was 1.37 grams. The “Mean value of visual ratings” value ([3]; 64 g ai/ha, Treatment A (water), scale 0-100) was 66.7, the “Mean Shoot Fresh Weights” value ([3]; 64 g ai/ha, Treatment B (YEME)) was 1.40 grams and the “Mean value of visual ratings” value ([3]; 64 g ai/ha, Treatment B (YEME), scale 0-100) was 63.3. For the same molecule, the “Mean Shoot Fresh Weights” value ([3]; 64 g ai/ha, Treatment C (pCAO200SU1-FeS-B#9)) was 2.94 grams, the “Mean value of visual ratings” value ([3]; 64 g ai/ha, Treatment C (pCAO200SU1-FeS-B#9), scale 0-100) was 43.3 and the “Shoot weight, dipped in pCAO200SU1-FeS-B#9 culture versus water or YEME” value ([3]; 125 g ai/ha) was 2-3 times. For the same molecule, the “Mean Shoot Fresh Weights” value ([3]; 125 g ai/ha, Treatment A (water)) was 0.80 grams, the “Mean value of visual ratings” value ([3]; 125 g ai/ha, Treatment A (water), scale 0-100) was 90 and the “Mean Shoot Fresh Weights” value ([3]; 125 g ai/ha, Treatment B (YEME)) was 1.06 grams. For the same molecule, the “Mean value of visual ratings” value ([3]; 125 g ai/ha, Treatment B (YEME), scale 0-100) was 70, the “Mean Shoot Fresh Weights” value ([3]; 125 g ai/ha, Treatment C (pCAO200SU1-FeS-B#9)) was 2.72 grams and the “Mean value of visual ratings” value ([3]; 125 g ai/ha, Treatment C (pCAO200SU1-FeS-B#9), scale 0-100) was 50. The “Shoot weight, dipped in pCAO200SU1-FeS-B#9 culture versus water or YEME” value ([3]; 250 g ai/ha) was 3-4 times greater, the “Mean Shoot Fresh Weights” value ([3]; 250 g ai/ha, Treatment A (water)) was 0.63 grams and the “Mean value of visual ratings” value ([3]; 250 g ai/ha, Treatment A (water), scale 0-100, 100 = complete kill) was 91.7. For the same molecule, the “Mean Shoot Fresh Weights” value ([3]; 250 g ai/ha, Treatment B (YEME)) was 0.40 grams, the “Mean value of visual ratings” value ([3]; 250 g ai/ha, Treatment B (YEME), scale 0-100) was 81.7 and the “Mean Shoot Fresh Weights” value ([3]; 250 g ai/ha, Treatment C (pCAO200SU1-FeS-B#9)) was 2.41 grams. The “Mean value of visual ratings” value ([3]; 250 g ai/ha, Treatment C (pCAO200SU1-FeS-B#9), scale 0-100) was 50.0.
